Normal melting temperature data for 2 compounds are collected here from the NIST ThermoML archive (doi:10.1021/acs.jced.8b00666).

Numbers after ± are expanded uncertainties.

For the data set the following is noted: Crystal; Heating/Cooling curves.

As for `C1CCCCC1` [cyclohexane], the Normal melting temperature worked out at 6.80 ± 0.2 °C.
Under `O.O=P(O)(O)O.O=P(O)(O)O` [phosphoric acid hemihydrate] stands 29.2 ± 0.21 °C.
